Laboratory results taken from PubChem BioAssay (NCI).
In brackets after ≈: the same amount, converted by molar mass.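 Values below derive from 48-hour exposures of cells grown in 96-well plates, with endpoints linearly interpolated between the two concentrations bracketing the appropriate inhibition level. The concentration for 50% growth inhibition is given as GI50. At the TGI there is no net growth.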 Activity calls are given as the source filed them. Rule as the data show it: active = GI50 below about 0.43 µM; inactive = the rest.

Assays:
Assay in all cases: inhibition of tumour cell growth, NCI panel, 48 h
[1] = tested on: ACHN renal
[2] = tested on: DMS 114 small cell lung
[3] = tested on: HCT-15 colon
[4] = tested on: KM20L2 colon
[5] = tested on: SF-295 CNS
[6] = tested on: SK-MEL-28 melanoma
[7] = tested on: SK-OV-3 ovarian
[8] = tested on: XF 498 CNS
[9] = tested on: DMS 273 small cell lung
[10] = tested on: HOP-18 NSCLC
[11] = tested on: LXFL 529 NSCLC
[12] = tested on: MCF7 breast
[13] = tested on: DU-145 prostate

Structure (SMILES) | TGI [1] [µM] | TGI [2] | TGI [3] | TGI [4] [µM] | TGI [5] | TGI [6] [µM] | TGI [7] | TGI [8] [µM] | TGI [9] [µM] | TGI [10] [µM] | TGI [11] [µM] | GI50 [2] [µg/mL] | GI50 [3] [µg/mL] | outcome [4] | GI50 [12] [µg/mL] | TGI [12] | GI50 [5] [µg/mL] | GI50 [7] [µg/mL] | TGI [13] [µM]
COC(=O)CC(=O)OC1C[C@@H]2CCC3C(C)(C)CCC[C@]3(C)C23CC[C@@]1(C)C3 (stereo partly drawn) | 31.7 | 37.9 µM | 36.1 µM | 37.6 | 34.5 µM | 38.8 | 52.4 µM | 34.4 | – | – | – | – | – | – | – | – | – | – | –
COc1cccc(NC(=O)/C(CS(=O)(=O)CCC(C(C)=O)C(C)=O)=N\NC(C)(C)C)c1 | > 100 | > 100 µM | > 100 µM | > 100 | – | > 100 | > 100 µM | – | > 100 | > 100 | > 100 | – | – | – | – | – | – | – | –
CCCC(O)c1ccc2[nH]c3c(C)cc([N+](=O)[O-])c(C)c3c2c1 (stereo not drawn) | > 100 | > 100 µM | > 100 µM | – | > 100 µM | > 100 | – | > 100 | > 100 | > 100 | – | – | – | – | – | – | – | – | –
Cc1c2ccncc2c(C)c2c1[nH]c1ccc(O)cc12 | – | 0.227 µg/mL | 0.361 µg/mL | – | 0.167 µg/mL | – | 0.261 µg/mL | – | – | – | – | 0.0226 (≈ 0.0863 µM) | 0.0107 (≈ 0.0409 µM) | inactive | 0.0319 (≈ 0.122 µM) | 0.338 µg/mL | 0.0181 (≈ 0.0692 µM) | 0.0393 (≈ 0.15 µM) | –
COC1=CC(=O)C2(C=C1OC)OC[C@H]1Oc3c(ccc4c3C=CC(C)(C)O4)C(=O)[C@H]12 (stereo partly drawn) | > 100 | 94.5 µM | – | > 100 | – | > 100 | > 100 µM | > 100 | > 100 | – | > 100 | – | – | – | – | – | – | – | –
O=C1CCNC/C1=C\c1ccccc1 | 78 | 73.4 µM | 50.1 µM | 28.4 | 67.8 µM | 35.1 | > 100 µM | 74.7 | 69.1 | – | 34.5 | – | – | – | – | – | – | – | –
CNC(=O)OC1/C(C)=C\C(C)C(O)C(OC)CC(C)CC2=C(OC)C(=O)C=C(C2=O)N(C)C(=O)/C(C)=C/C=C\C1OC (stereo not drawn) | 20.9 | 12.6 µM | 17.5 µM | 15.5 | 46.5 µM | 19.2 | 30 µM | 10 | 14.8 | 22.7 | 19.6 | – | – | – | – | – | – | – | > 41.8
Cc1ccccc1NC(=O)C(=O)C(C(=O)c1ccccc1F)C1OC(=O)c2ccccc21 (stereo not drawn) | > 100 | 53.3 µM | 79.5 µM | > 100 | – | 35.8 | > 100 µM | – | 64.5 | 79.4 | 75.3 | – | – | – | – | – | – | – | –
O=S(c1ccc(O)cc1)c1ccc(O)cc1 | – | > 100 µM | > 100 µM | > 100 | > 100 µM | > 100 | > 100 µM | > 100 | > 100 | – | – | – | – | – | – | – | – | – | –
CCCOC(=O)CCC(NC(=O)c1ccc(Nc2nc3ccccc3nc2-c2cccs2)cc1)C(=O)OCCC (stereo not drawn) | > 100 | – | > 100 µM | > 100 | > 100 µM | > 100 | > 100 µM | > 100 | > 100 | > 100 | > 100 | – | – | – | – | – | – | – | –
COc1ccc(N2C(=O)[C@@H]3[C@@H]4CC(C)CC[C@@H]4c4c([nH]c5ccccc45)[C@@H]3C2=O)cc1 (stereo partly drawn) | 26.9 | > 59.5 µM | > 50.2 µM | > 100 | 45 µM | > 100 | 22.8 µM | 26 | 44.3 | 14 | > 88 | – | – | – | – | – | – | – | –
CC(=O)OC1CCC2(C)C(CCC3C2CCC2(C)C(c4ccc(=O)oc4)C(OC(C)=O)CC32O)C1 (stereo not drawn) | – | – | 0.0313 µM | 0.092 | 0.0456 µM | 0.497 | 0.103 µM | 0.0771 | 0.0194 | 0.068 | – | – | – | – | – | 0.229 µM | – | – | –
CCOC(=O)CN(CC)C(=O)NC12CC3CC(CC(C3)C1)C2 | – | 363 µM | 646 µM | 471 | > 615 µM | > 750 | 513 µM | 293 | > 705 | 609 | – | – | – | – | – | 461 µM | – | – | –
O=[N+]([O-])c1ccc(N=P(c2ccccc2)(c2ccccc2)c2ccccc2)n2nnnc12 | > 100 | > 100 µM | > 100 µM | > 100 | 90.2 µM | > 100 | 95.8 µM | > 100 | > 100 | > 100 | > 100 | – | – | – | – | – | – | – | –
O=C(CC(C(=O)c1ccsc1)c1cccs1)c1cccs1 (stereo not drawn) | > 100 | > 100 µM | > 100 µM | > 100 | > 100 µM | > 100 | > 100 µM | > 100 | > 100 | – | > 100 | – | – | – | – | – | – | – | –
COC(OC)c1cccc2c1C(=O)CCC1(CC2)OCCCCO1 | > 100 | > 100 µM | > 100 µM | > 100 | > 100 µM | > 100 | > 100 µM | – | > 100 | > 100 | > 100 | – | – | – | – | – | – | – | –
C=CCCCCCCCCCOC1C=CC(O)C(CO)O1 (stereo not drawn) | > 100 | – | > 100 µM | – | > 100 µM | > 100 | > 100 µM | – | – | – | – | – | – | – | – | > 100 µM | – | – | > 100
O=C(O)COc1c(Cl)cc(Cl)c(C(c2c(Cl)cc(Cl)c(OCC(=O)O)c2Cl)C(Cl)(Cl)Cl)c1Cl | > 100 | – | 76 µM | – | 51.9 µM | > 100 | 47.2 µM | – | – | – | – | – | – | – | – | > 100 µM | – | – | > 100
